For one assay, the target named is Mnk1 (Homo sapiens (Human), UniProt Q9BUB5). The experiment in a line: Mnk1 kinase inhibition, ADP-Glo ADP monitoring assay. It counts as biochemical. The conditions noted are these: for IC50: read-out: Mnk1 inhibition IC50 (+,++,+++). On the technique in general: In ADP-Glo the light output rises with the ADP produced.
The next assay has as its target Mnk2 (Homo sapiens (Human), UniProt Q9HBH9). The experiment in a line: Mnk2 kinase inhibition, ADP-Glo ADP monitoring assay. In kind it is biochemical.
Where [1] appears, read: ADP-Glo kinase assay, read-out: Mnk2 inhibition IC50 (+,++,+++).

Where two headings read alike, the source gives them in different places.

Chain of Mnk2 (Q9HBH9 whole entry): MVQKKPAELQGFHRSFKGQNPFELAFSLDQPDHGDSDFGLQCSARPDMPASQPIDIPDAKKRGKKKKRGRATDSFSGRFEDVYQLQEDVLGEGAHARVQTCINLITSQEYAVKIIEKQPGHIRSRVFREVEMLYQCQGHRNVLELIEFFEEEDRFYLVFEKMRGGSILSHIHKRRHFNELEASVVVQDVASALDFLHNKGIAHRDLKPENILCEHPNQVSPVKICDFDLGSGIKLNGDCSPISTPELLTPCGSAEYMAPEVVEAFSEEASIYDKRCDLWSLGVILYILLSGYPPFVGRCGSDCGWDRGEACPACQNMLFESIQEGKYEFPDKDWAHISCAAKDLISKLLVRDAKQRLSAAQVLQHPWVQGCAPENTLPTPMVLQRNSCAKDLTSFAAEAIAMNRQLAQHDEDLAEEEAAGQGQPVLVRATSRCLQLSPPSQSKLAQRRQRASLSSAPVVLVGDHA
Chain of Mnk1 (Q9BUB5 whole entry): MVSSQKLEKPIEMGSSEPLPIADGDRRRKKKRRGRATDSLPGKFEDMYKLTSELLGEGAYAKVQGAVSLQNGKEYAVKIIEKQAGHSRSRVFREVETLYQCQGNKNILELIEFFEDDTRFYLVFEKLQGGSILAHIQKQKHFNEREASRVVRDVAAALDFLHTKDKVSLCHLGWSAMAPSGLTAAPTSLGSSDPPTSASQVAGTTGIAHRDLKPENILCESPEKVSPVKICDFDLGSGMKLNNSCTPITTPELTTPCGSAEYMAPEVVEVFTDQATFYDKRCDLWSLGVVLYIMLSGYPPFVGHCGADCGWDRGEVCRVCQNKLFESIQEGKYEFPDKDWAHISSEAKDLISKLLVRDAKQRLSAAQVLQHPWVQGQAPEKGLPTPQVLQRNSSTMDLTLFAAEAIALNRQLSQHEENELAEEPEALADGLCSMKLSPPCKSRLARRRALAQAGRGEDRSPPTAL
Experimental for Mnk1: (§1) The synthesized compounds then were tested for inhibition of the kinase activity (IC50) of Mnk1 and/or Mnk2 using the ADP monitoring assay for kinases described in Zegzouti, H.; Zdanovskaia, M.; Hsiao, K.; Goueli, S. A., ADP-Glo: A Bioluminescent and homogeneous ADP monitoring assay for kinases.
Experimental for Mnk2: as §1

Turning to `Fc1ccc2c(ncn2-c2nc(NCCc3ccncc3)ncc2Cl)c1F` [NUCC-0200800], the “Mnk1 inhibition IC50 (+,++,+++)” value at Mnk1 is reported as “no activity”. In addition, the “Mnk2 inhibition IC50 (+,++,+++)” value at Mnk2 (ADP-Glo kinase assay) is “no activity”.
As a reminder, the IC50 is the concentration that gives 50% inhibition. As to `Clc1cnc(NCCc2ccncc2)nc1-n1nnc2ccccc21` [NUCC-0200801], the figures for the IC50 on Mnk1 and at Mnk2 were over 10000 nM and 1000 to 10000 nM, respectively.
Regarding `N#Cc1cnc(NCCc2ccncc2)nc1-n1nnc2ccccc21` [NUCC-0200802], the IC50 at Mnk1 and on Mnk2 (setting [1]) was over 10000 nM in each case.
`Clc1cnc(OC2CCOCC2)nc1-n1cnc2ccccc21` [NUCC-0200804]: the IC50 at Mnk1 and at Mnk2 (setting [1]) was under 1000 nM throughout.
On to `Clc1cnc(OC2CCOC2)nc1-n1cnc2ccccc21` (centres unmarked) [NUCC-0200805], for which the IC50 at Mnk1 and at Mnk2 (setting [1]) was under 1000 nM each time.
As for `Clc1cnc(OCCN2CCOCC2)nc1-n1cnc2ccccc21` [NUCC-0200806], the values for the IC50 at Mnk1 and at Mnk2 (setting [1]) were 1000 to 10000 nM and under 1000 nM, respectively.
As for `COc1ccc(Oc2ncc(Cl)c(-n3cnc4ccccc43)n2)cc1` [NUCC-0200809], the “Mnk1 inhibition IC50 (+,++,+++)” value on Mnk1 is “no activity”. Moreover, the “Mnk2 inhibition IC50 (+,++,+++)” value on Mnk2 (ADP-Glo kinase assay) is reported as “no activity”.
As to `Clc1cnc(Oc2cccnc2)nc1-n1cnc2ccccc21` [NUCC-0200810, 1-(5-chloro-2-(pyridin-3-yloxy)pyrimidin-4-yl)-1H-benzo[d]imidazole], the “Mnk1 inhibition IC50 (+,++,+++)” value on Mnk1 is “no activity”. Further, the “Mnk2 inhibition IC50 (+,++,+++)” value on Mnk2 (ADP-Glo kinase assay) was “no activity”.
With `N#Cc1cnc(OCc2ccccn2)nc1-n1cnc2ccccc21` [NUCC-0200902], the IC50 on Mnk1 and on Mnk2 (setting [1]) was under 1000 nM each time.
As to `N#Cc1cnc(OCc2cccnc2)nc1-n1cnc2ccccc21` [NUCC-0200903], the IC50 on Mnk1 and on Mnk2 (setting [1]) was under 1000 nM in each case.
As to `N#Cc1cnc(OCc2ccncc2)nc1-n1cnc2ccccc21` [NUCC-0200904], the IC50 at Mnk1 and on Mnk2 was 1000 to 10000 nM each time.
As to `N#Cc1cnc(OC2CCc3cccnc32)nc1-n1cnc2ccccc21` (centres unmarked) [NUCC-0200905], the IC50 on Mnk1 is over 10000 nM; against Mnk2, 1000 to 10000 nM.
`N#Cc1cnc(-n2cnc3ccccc32)nc1OC1CCc2cccnc21` (centres unmarked) [NUCC-0200906]: the IC50 was 1000 to 10000 nM on Mnk1 and under 1000 nM on Mnk2 (setting [1]).
As for `Cc1ccc2c(c1)ncn2-c1nc(NCCc2ccncc2)ncc1Cl` [NUCC-0200908], the half-inhibitory concentration (IC50) is over 10000 nM at Mnk1 and 1000 to 10000 nM against Mnk2.
For `Cc1ccc2c(c1)ncn2-c1ncc(Cl)c(NCCc2ccncc2)n1` [NUCC-0200909], the IC50 at Mnk1 and at Mnk2 (setting [1]) was under 1000 nM each time.
Turning to `COc1ccc2c(c1)ncn2-c1nc(NCCc2ccncc2)ncc1Cl` [NUCC-0200910], the figures for the IC50 on Mnk1 and on Mnk2 (setting [1]) were over 10000 nM and under 1000 nM, respectively.
For `Clc1cnc(NCCc2ccncc2)nc1-n1ccc2c(Cl)ncnc21` [NUCC-0200911], the IC50 on Mnk1 and on Mnk2 (setting [1]) was over 10000 nM in each case.
In the case of `Clc1cnc(NCCCc2ccncc2)nc1-n1cnc2ccccc21` [NUCC-0200912], the IC50 is over 10000 nM on Mnk1 and 1000 to 10000 nM against Mnk2.
Regarding `N#Cc1cnc(NCCCc2ccncc2)nc1-n1cnc2ccccc21` [NUCC-0200913], the half-maximal inhibitory concentration (IC50) at Mnk1 and at Mnk2 (setting [1]) was over 10000 nM each time.
For `Clc1cnc(OCCC2CCNCC2)nc1-n1cnc2ccccc21` [NUCC-0201002], the IC50 at Mnk1 and at Mnk2 (setting [1]) was under 1000 nM in each case.
For the compound `OC1CC(Nc2ncc(Cl)c(-n3cnc4ccccc43)n2)C1` (centres unmarked) [NUCC-0201003], the IC50 on Mnk1 and against Mnk2 was 1000 to 10000 nM throughout.
On to `NC1CC(Oc2ncc(Cl)c(-n3cnc4ccccc43)n2)C1` (centres unmarked) [NUCC-0201004], for which the IC50 at Mnk1 and on Mnk2 (setting [1]) was under 1000 nM each time.
`N#Cc1cnc(OCCc2cccnc2)nc1-n1cnc2ccccc21` [NUCC-0201005]: the IC50 at Mnk1 and on Mnk2 was 1000 to 10000 nM throughout.
Consider `NC1CCN(c2ncc(Cl)c(-n3cnc4ccccc43)n2)C1` (centres unmarked) [NUCC-0201006], for which the IC50 at Mnk1 and on Mnk2 was 1000 to 10000 nM throughout.
As to `Clc1cnc(NC2CCNC2)nc1-n1cnc2ccccc21` (centres unmarked) [NUCC-0201007], the 50% inhibitory concentration (IC50) on Mnk1 and on Mnk2 (setting [1]) was under 1000 nM each time.

Source of the values: US10851082B2, “Substituted aromatic n-heterocyclic compounds as inhibitors of mitogen-activated protein kinase interacting kinase 1 (MNK1) and 2 (MNK2)” (Northwestern University, priority 2015, dated 2020).
